Tests used:
lymphoma P 388 = experiment: In vivo antitumor activity, lymphoma P 388; design: species or system mouse; settings: Table IX; subcutaneous P 388 in CDF1 mice; compound 1 or 20 40 mg/kg 5/week from D5, 5 weeks; VCR 0.63 mg/kg 3/week from D5, 3 weeks
Experimental: (§1) 4.—In Vivo Antitumor Activity in Combination With a Cytotoxic Agent
(§2) The tests were carried out on models of:
(§3) in the presence or absence of cytotoxic agents such as cyclophosphamide, etoposide, doxorubicin or vincristine.
(§4) When the MTD value of a product was determined, its in vivo antitumor activity was characterized at doses of MTD/2, MTD/4 and MTD/8 on the model of mouse mammary adenocarcinoma HS-MXT and on the model of lymphoma P 388.
(§5) In all the examples presented below, irrespective of the model (mammary adenocarcinoma HS-MXT or lymphoma P 388), the control condition is represented by a batch of 9 mice to which is administered for 5 consecutive weeks and at a rate of 5 administrations (Monday, Tuesday, Wednesday, Thursday and Friday) per week a volume of 0.2 ml of physiological saline containing the solvent used to dissolve the various compounds of formulae (I) and (Ia) used.
(§6) i)—The survival rate of the mice
(§7) This survival rate was calculated in the form of a ratio T/C:
(§8) This ratio represents the average survival time of the median mouse from the batch of treated mice relative to the average survival time of the median mouse from the batch of control mice. Thus, a molecule induces a significant (P<0.05) increase in the survival of the animals when the index T/C exceeds 130%. Conversely, it has a toxic effect when this value of T/C is less than 70%.
4- to 6-week-old CDF1 mice are grafted with a piece of P 388 tumor (from a tumor bank maintained in the laboratory) subcutaneously into the right flank on day D0. In order to be under conditions close to clinical reality, we waited until the 5th day post-grafting (D5) before starting the treatment. The reason for this was that, after this period of time, the subcutaneous P 388 tumors are palpable.
Compound 1 is administered alone. The first injection of the product is carried out on the 5th day post-grafting (D5) at a rate of 5 injections per week (Monday, Tuesday, Wednesday, Thursday and Friday) for five consecutive weeks-and at a dose of 40 mg/kg.
Compound 20 is administered alone. […]

[1] = system: hormone-sensitive mouse mammary adenocarcinoma MXT (HS-MXT); experiment: In vivo antitumor activity, mouse mammary adenocarcinoma HS-MXT
Experimental: as §1, §2
hormone-sensitive mouse mammary adenocarcinoma MXT (HS-MXT),
as §3, §4, §5
The following parameters were determined in these tests:
as §6, §7, §8
ii)—The tumor growth [lacuna] by measuring the area of the grafted HS-MXT or P 388 tumors twice a week (Monday and Friday). This area is calculated by multiplying the values of the largest two perpendicular axes of the tumor. The value of these axes is measured using a sliding caliper.
The model of hormone-sensitive MXT (HS-MXT) mouse mammary adenocarcinoma grafted onto 4- to 6-week-old B6D2F1/JIco mice is derived from the milk ducts of the mammary gland (Watson C. et al. Cancer Res. 1977; 37: 3344-48).
Compound 1 is administered alone. The first injection of the product is carried out on the seventh day post-grafting (D7) for four consecutive weeks at a rate of 5 injections per week (Monday, Tuesday, Wednesday, Thursday and Friday) and at a dose of 20 mg/kg.
Cyclophosphamide (CPA) is administered alone. The first injection of the product is carried out on the fourteenth day post-grafting (D14) for three consecutive weeks at a rate of 3 injections per week (Monday, Wednesday and Friday) and at a dose of 10 mg/kg.
Compound 1 is co-administered with cyclophosphamide. In this case, the first injection of compound 1 is carried out on the seventh day post-grafting (D7) for four consecutive weeks at a rate of 5 injections per week (Monday, Tuesday, Wednesday, Thursday and Friday) at a dose of 20 mg/kg, and the first injection of cyclophosphamide is carried out on the fourteenth day post-grafting (D14) for three consecutive weeks at a rate of 3 injections per week (Monday, Wednesday and Friday) at a dose of 10 mg/kg.
Etoposide (ETO) is administered alone. The first injection of the product is carried out on the fourteenth day post-grafting (D14) for three consecutive weeks at a rate of 3 injections per week (Monday, Wednesday and Friday) and at a dose of 10 mg/kg.
Doxorubicin (DOX) is administered alone. The first injection of the product is carried out on the fourteenth day post-grafting (D14) for three consecutive weeks at a rate of 3 injections per week (Monday, Wednesday and Friday) and at a dose of 5 mg/kg.
Compound 1 is co-administered with etoposide.

| SMILES | T/C (survival) (lymphoma P 388) | T/C (survival) ([1]; Table IV, HS-MXT in B6D2F1/JIco mice, compound 1 20 mg/kg 5 injections/week from D7, 4 weeks, CPA 10 mg/kg 3 injections/week from D14, 3 weeks) | T/C (survival) ([1]; Table V, HS-MXT in B6D2F1/JIco mice, compound 1 20 mg/kg 5/week from D7, 4 weeks, ETO 10 mg/kg or DOX 5 mg/kg 3/week from D14, 3 weeks) | Tumor area, reduction (−) or increase (+) compared with control ([1]; Table VI, HS-MXT tumors, 31st day after graft, 19 administrations of compound 1 (20 mg/kg), 8 of cyclophosphamide (10 mg/kg)) | T/C (survival) ([1]; Table VII, HS-MXT, compound 21 40 mg/kg 5/week from D7, 5 weeks, ETO 10 mg/kg 3/week from D7, 3 weeks) |
| --- | --- | --- | --- | --- | --- |
| COc1ccc(-c2cc3c(OC)cc(OC)cc3[nH]c2=O)cc1 [CRL8246, 5,7-Dimethoxy-3-(4-methoxyphenyl)-1,2-dihydro-2-quinolinone] | 120% | 100% | 95% | −19.5% |  |
| COc1ccc(-c2cc3c(OC)cc(OC)cc3n(CCC#N)c2=O)cc1 [CRL8247, 3-[5,7-Dimethoxy-3-(4-methoxyphenyl)-2-oxo-1,2-dihydro-1-quinolinyl]propanenitrile] | 125% |  |  |  |  |
| COc1ccc(-c2cc3c(OC)cc(OC)cc3n(CCc3nnn[nH]3)c2=O)cc1 [CRL8256, 1-[2-(1H-1,2,3,4-Tetrazol-5-yl)ethyl]-5,7-dimethoxy-3-(4-methoxyphenyl)-1,2-dihydro-2-quinolinone] |  |  |  |  | 110% |

From patent publication US6593342B1, “Pharmaceutical compositions comprising 2-quinolones” (Laboratoire L. Lafon, priority 1998, dated 2003)
